2 compounds from article PMC8113490, “Androgen signaling uses a writer and a reader of ADP-ribosylation to regulate protein complex assembly” (Nature Communications, 2021) can be followed below.

One experiment has as its target T1, Parp7 (Homo sapiens, UniProt Q7Z3E1).
T1 construct: gene TIPARP; N-terminal His6-T7-tagged Parp7 expressed in Sf21 insect cells
T1 sequence (Q7Z3E1 1-657): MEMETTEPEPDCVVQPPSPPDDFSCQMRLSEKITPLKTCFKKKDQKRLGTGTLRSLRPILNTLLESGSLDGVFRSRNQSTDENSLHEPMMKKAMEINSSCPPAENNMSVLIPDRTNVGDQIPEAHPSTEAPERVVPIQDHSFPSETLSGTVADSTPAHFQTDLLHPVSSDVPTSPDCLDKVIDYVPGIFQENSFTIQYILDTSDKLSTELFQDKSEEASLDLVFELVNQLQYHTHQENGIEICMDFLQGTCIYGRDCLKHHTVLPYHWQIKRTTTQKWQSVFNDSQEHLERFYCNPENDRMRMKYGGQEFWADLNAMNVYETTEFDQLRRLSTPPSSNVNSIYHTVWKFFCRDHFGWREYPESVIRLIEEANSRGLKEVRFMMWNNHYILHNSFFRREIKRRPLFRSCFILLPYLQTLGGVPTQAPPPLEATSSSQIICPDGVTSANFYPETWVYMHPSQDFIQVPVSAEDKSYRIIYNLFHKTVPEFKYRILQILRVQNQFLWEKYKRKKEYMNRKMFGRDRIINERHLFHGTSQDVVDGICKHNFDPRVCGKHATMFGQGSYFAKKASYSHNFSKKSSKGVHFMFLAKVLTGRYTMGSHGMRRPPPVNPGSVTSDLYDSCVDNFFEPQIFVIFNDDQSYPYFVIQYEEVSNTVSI
Briefly: in vitro ADP-ribosylation of AR and automodification with recombinant Parp7 and NAD+. It is filed as biochemical.

Experiment [1] has as its target Flag-AR 4CG (C125, 290, 327, 406G) (human) (UniProt P10275). Briefly: co-IP; AR IP from PC3M/HA-Parp7 cells stably expressing Flag-tagged WT AR or Cys-to-Gly mutants, treated +R1881; probed for AR, ADP-ribosylation, Dtx3L and Parp9.

Sequence of Flag-AR 4CG (C125, 290, 327, 406G) (human) (P10275 whole entry C125G/C290G/C327G/C406G): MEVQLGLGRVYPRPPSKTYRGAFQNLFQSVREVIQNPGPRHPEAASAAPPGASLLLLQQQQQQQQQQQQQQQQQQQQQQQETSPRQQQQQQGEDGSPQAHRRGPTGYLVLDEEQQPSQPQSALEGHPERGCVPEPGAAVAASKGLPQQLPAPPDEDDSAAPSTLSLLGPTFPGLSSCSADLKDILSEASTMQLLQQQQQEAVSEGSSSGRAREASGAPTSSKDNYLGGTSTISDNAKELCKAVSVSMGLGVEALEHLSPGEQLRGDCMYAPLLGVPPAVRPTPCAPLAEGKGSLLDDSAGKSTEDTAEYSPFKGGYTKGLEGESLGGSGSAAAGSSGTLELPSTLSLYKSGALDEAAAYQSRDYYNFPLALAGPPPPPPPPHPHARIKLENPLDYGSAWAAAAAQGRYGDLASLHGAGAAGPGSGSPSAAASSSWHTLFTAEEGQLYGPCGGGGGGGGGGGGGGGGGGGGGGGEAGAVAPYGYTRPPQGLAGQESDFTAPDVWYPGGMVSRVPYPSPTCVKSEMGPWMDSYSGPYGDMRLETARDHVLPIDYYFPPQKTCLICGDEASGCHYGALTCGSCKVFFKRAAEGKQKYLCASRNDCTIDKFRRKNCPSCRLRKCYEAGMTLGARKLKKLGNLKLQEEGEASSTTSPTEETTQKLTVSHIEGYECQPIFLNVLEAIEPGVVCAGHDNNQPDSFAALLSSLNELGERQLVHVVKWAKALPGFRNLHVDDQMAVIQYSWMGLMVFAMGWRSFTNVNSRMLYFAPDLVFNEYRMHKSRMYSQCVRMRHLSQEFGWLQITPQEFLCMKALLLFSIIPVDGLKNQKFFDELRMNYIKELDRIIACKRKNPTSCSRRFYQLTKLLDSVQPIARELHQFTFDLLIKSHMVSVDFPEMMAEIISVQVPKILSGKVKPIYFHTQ

`NC(=O)c1ccc[n+]([C@@H]2O[C@H](COP(=O)([O-])OP(=O)(O)OC[C@H]3O[C@@H](n4cnc5c(N)ncnc54)[C@H](O)[C@@H]3O)[C@@H](O)[C@H]2O)c1` [NAD^+]: on Parp7, the “in vitro ADP-ribosylation of AR and automodification with recombinant Parp7 and” value is “Combining recombinant Parp7, NAD^+, and bead-immobilized AR reconstituted ADP-ribosylation”.

As to Parp9 (enzyme), the complex formation, percent of WT in experiment [1] is 50 % of WT.
